Assay results reported in patent US20220401514A1, “ANTIMICROBIAL, BACTERIOPHAGE-DERIVED POLYPEPTIDES AND THEIR USE AGAINST GRAM-NEGATIVE AND ACID-FAST BACTERIA” (CONTRAFECT CORPORATION, priority 2019, published 2022).
Read-outs that look alike come from different tables or passages of the source.

How the values were obtained:
[1] = tested on: P. aeruginosa strain CFS-1292; assay: MIC in presence of divalent cations (calcium chloride, magnesium sulfate); format: cell-based, Pseudomonas aeruginosa
Description: Next, Chp peptides were evaluated in the presence of different divalent cations. […]; (2) in the presence of 2 mM calcium chloride alone; (3) in the presence of 1 mM magnesium sulfate alone; and (4) in the presence of both 2 mM calcium chloride and 1 mM magnesium sulfate. […]

[2] = tested on: P. aeruginosa strain CFS-1292; assay: MIC in presence and absence of Survanta pulmonary surfactant; format: cell-based, Pseudomonas aeruginosa
Klebsiella pneumoniae [3] = format: cell-based
Description: Determination of Minimal Inhibitory Concentrations (MIC).
Additional MIC testing was performed for several peptides against the ESKAPE pathogens Escherichia coli, Enterobacter cloacae, Klebsiella pneumoniae, and Acinetobacter baumannii, in CAA supplemented with human serum (Table D).

[4] = tested on: P. aeruginosa strain CFS-1292; assay: Checkerboard assay (FICI) with antibiotics, P. aeruginosa; format: cell-based, Pseudomonas aeruginosa; parameters: key to FIC Index: FICI = FIC A + FIC B; each FIC = MIC in combination / MIC alone; conditions: for FICI: CAA + […] human serum; for Chp peptide MIC in checkerboard: P. aeruginosa CFS-1292, CAA + […] human serum
Summary of the method: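 Antibiotic diluted 2-fold along one plate axis against Chp peptide; bacteria added at 1×10^5 […] in CAA, optionally with human serum or pulmonary surfactant.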

Klebsiella pneumoniae [5] = assay: microbe, parasite or virus in culture; format: cell-based; conditions: CAA without human serum
[6] = K. pneumoniae isolates (n per peptide in table)

MRLKMARRRYRLPRRRSRRLFSRTALRMHPRNRLRRIMRGGIRF [Chp2]
MIC ([1]; CAA media + 1 mM MgSO4): 0.5 µg/mL | MIC ([1]; CAA media + 2 mM CaCl2): 0.25 µg/mL | MIC ([1]; CAA media + + 1 mM MgSO4): 0.25 µg/mL | MIC ([1]; CAA media alone): 0.5 µg/mL | MIC ([2]; CAA media + 0.19 mg/mL Survanta): 1 µg/mL | MIC ([2]; CAA media + […] Survanta): 1 µg/mL | MIC ([2]; CAA media alone): 0.5 µg/mL | MIC50 (Klebsiella pneumoniae [3]; [6]): 0.5 µg/mL | MIC100 (Klebsiella pneumoniae [3]; [6]): 1 µg/mL | MIC Range (Klebsiella pneumoniae [3]; [6]): 0.125 to 1 µg/mL | MIC (Klebsiella pneumoniae [3]; Klebsiella pneumoniae HM-44, CAA supplemented with human serum): 0.125 µg/mL | FIC Index ([4]; Chp peptide combined with Amikacin, P. aeruginosa CFS-1292): 0.5 | FIC Index ([4]; Chp peptide combined with Azithromycin, P. aeruginosa CFS-1292): 0.375 | FIC Index ([4]; Chp peptide combined with Aztreonam, P. aeruginosa CFS-1292): 0.375 | FIC Index ([4]; Chp peptide combined with Ciprofloxacin, P. aeruginosa CFS-1292): 0.75 | FIC Index ([4]; Chp peptide combined with Colistin, P. aeruginosa CFS-1292): 0.375 | FIC Index ([4]; Chp peptide combined with Gentamicin, P. aeruginosa CFS-1292): 0.5625 | FIC Index ([4]; Chp peptide combined with Imipenem, P. aeruginosa CFS-1292): 0.375 | FIC Index ([4]; Chp peptide combined with Levofloxacin, P. aeruginosa CFS-1292): 0.5 | FIC Index ([4]; Chp peptide combined with Meropenem, P. aeruginosa CFS-1292): 0.375 | FIC Index ([4]; Chp peptide combined with Piperacillin, P. aeruginosa CFS-1292): 1 | FIC Index ([4]; Chp peptide combined with Tobramycin, P. aeruginosa CFS-1292): 0.375 | interaction between the Chp peptide and the antibiotic (FICI values) ([4]; P. aeruginosa CFS-1292, range of antibiotics): either synergy (i.e., ≤0.5) or strongly additive (i.e., >0.5-1) | FICI ([4]; combination with Amikacin): 0.500 | FICI ([4]; combination with Azithromycin): 0.156 | FICI ([4]; combination with Aztreonam): 0.500 | FICI ([4]; combination with Ciprofloxacin): 0.500 | FICI ([4]; combination with Colistin): 0.375 | FICI ([4]; combination with Fosfomycin): 0.250 | FICI ([4]; combination with Gentamicin): 0.281 | FICI ([4]; combination with Imipenem): 0.188 | FICI ([4]; combination with Piperacillin): 0.188 | FICI ([4]; combination with Rifampicin): 0.563 | FICI ([4]; combination with Tobramycin): 0.266 | Chp peptide FIC ([4]; combined with Amikacin, P. aeruginosa CFS-1292): 0.25 | Chp peptide MIC in checkerboard ([4]; combined with Amikacin): 0.25 µg/mL | Chp peptide FIC ([4]; combined with Azithromycin, P. aeruginosa CFS-1292): 0.125 | Chp peptide MIC in checkerboard ([4]; combined with Azithromycin): 0.0625 µg/mL | Chp peptide FIC ([4]; combined with Aztreonam, P. aeruginosa CFS-1292): 0.125 | Chp peptide MIC in checkerboard ([4]; combined with Aztreonam): 0.0625 µg/mL | Chp peptide FIC ([4]; combined with Ciprofloxacin, P. aeruginosa CFS-1292): 0.25 | Chp peptide MIC in checkerboard ([4]; combined with Ciprofloxacin): 0.125 µg/mL | Chp peptide FIC ([4]; combined with Colistin, P. aeruginosa CFS-1292): 0.125 | Chp peptide MIC in checkerboard ([4]; combined with Colistin): 0.0625 µg/mL | Chp peptide FIC ([4]; combined with Gentamicin, P. aeruginosa CFS-1292): 0.0625 | Chp peptide MIC in checkerboard ([4]; combined with Gentamicin): 0.03125 µg/mL | Chp peptide FIC ([4]; combined with Imipenem, P. aeruginosa CFS-1292): 0.25 | Chp peptide MIC in checkerboard ([4]; combined with Imipenem): 0.125 µg/mL | Chp peptide FIC ([4]; combined with Levofloxacin, P. aeruginosa CFS-1292): 0.25 | Chp peptide MIC in checkerboard ([4]; combined with Levofloxacin): 0.0625 µg/mL | Chp peptide FIC ([4]; combined with Meropenem, P. aeruginosa CFS-1292): 0.125 | Chp peptide MIC in checkerboard ([4]; combined with Meropenem): 0.0625 µg/mL | Chp peptide FIC ([4]; combined with Piperacillin, P. aeruginosa CFS-1292): 0.5 | Chp peptide MIC in checkerboard ([4]; combined with Piperacillin): 0.25 µg/mL | Chp peptide FIC ([4]; combined with Tobramycin, P. aeruginosa CFS-1292): 0.125 | Chp peptide MIC in checkerboard ([4]; combined with Tobramycin): 0.0625 µg/mL | MIC (Klebsiella pneumoniae [5]; Klebsiella pneumoniae (ATCC 10031, MIC control strain), RSC 814): 4 µg/mL | MIC (Klebsiella pneumoniae [5]; Klebsiella pneumoniae (g2-3 HM35K), RSC 1138): 4 µg/mL | MIC (Klebsiella pneumoniae [5]; Klebsiella sp. (HM-44; colon, Crohn's disease), RSC 1139): 2 µg/mL | MIC (Klebsiella pneumoniae [5]; Klebsiella spp. (HM-223; gut of Crohn's disease patient), RSC 1131): 4 µg/mL
